# The supplement of paper PMC10307832
# Tests used:
# Assay in all cases: relative viability (nuclei count vs DMSO), 5 days (fraction); higher = more cells survive
# [1] = compound: Cc1ccc(-n2nc(C(C)(C)C)cc2NC(=O)Nc2ccc(OCCN3CCOCC3)c3ccccc23)cc1 [Doramapimod] + O=C(CCCCCCC(=O)Nc1ccccc1)NO [Vorinostat] (partner 1 µM)
# Method in brief: (§1)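 Lung cancer cell lines in 1536-well plates got either a single drug or a fixed anchor-drug dose together with five library-drug doses (not always all listed) in √10 steps, by pin tool, on the day after seeding. Nuclei were counted after 5 days, and relative viability is the treated-to-vehicle ratio of nuclei counts. Values are medians of duplicate plates.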
# [2] = compound: C1=CC=C2C(=C1)C=CC(=C2SSC3=C(C=CC4=CC=CC=C43)O)O [IPA-3] + CS(=O)(=O)CCNCc1ccc(-c2ccc3ncnc(Nc4ccc(OCc5cccc(F)c5)c(Cl)c4)c3c2)o1 [Lapatinib] (partner 2 µM)
# Method in brief: as §1
# [3] = compound: C1=CC=C2C(=C1)C=CC(=C2SSC3=C(C=CC4=CC=CC=C43)O)O [IPA-3] + CC1(C)CCC(c2ccc(Cl)cc2)=C(CN2CCN(c3ccc(C(=O)NS(=O)(=O)c4ccc(N[C@H](CCN5CCOCC5)CSc5ccccc5)c(S(=O)(=O)C(F)(F)F)c4)cc3)CC2)C1 [Navitoclax] (partner 0.5 µM)
# Method in brief: as §1
# [4] = compound: Cn1c(Nc2ccc(C(F)(F)F)cc2)nc2cc(Oc3ccnc(-c4ncc(C(F)(F)F)[nH]4)c3)ccc21 [RAF265] + Cc1nc(Nc2ncc(C(=O)Nc3c(C)cccc3Cl)s2)cc(N2CCN(CCO)CC2)n1 [Dasatinib] (partner 0.075 µM)
# Method in brief: as §1
Cell Line,relative viability ([1]; first compound 0.02 µM),relative viability ([1]; first compound 0.06325 µM),relative viability ([1]; first compound 0.2 µM),relative viability ([1]; first compound 0.6325 µM),relative viability ([1]; first compound 2 µM),relative viability ([2]; first compound 0.2 µM),relative viability ([2]; first compound 0.6325 µM),relative viability ([2]; first compound 2 µM),relative viability ([2]; first compound 6.325 µM),relative viability ([2]; first compound 20 µM),relative viability ([3]; first compound 0.2 µM),relative viability ([3]; first compound 0.6325 µM),relative viability ([3]; first compound 2 µM),relative viability ([3]; first compound 6.325 µM),relative viability ([3]; first compound 20 µM),relative viability ([4]; first compound 0.01 µM),relative viability ([4]; first compound 0.03162 µM),relative viability ([4]; first compound 0.1 µM),relative viability ([4]; first compound 0.3162 µM),relative viability ([4]; first compound 1 µM)
201T,0.994,1.03,1.06,0.672,1,1.06,1.05,1.02,1.04,1.07,1.21,1.19,1.21,1.22,1.18,0.575,0.624,0.532,0.495,0.458
A549,–,–,–,–,–,1.07,0.897,1.01,1,0.981,1.27,1.21,1.39,1.28,1.18,–,–,–,–,–
A-427,0.905,0.889,0.904,–,0.904,1.17,0.997,0.981,1.09,1.2,0.996,0.857,0.98,0.856,0.99,0.641,0.615,0.685,0.469,0.131
ABC-1,1.25,1.29,1.21,0.865,1.15,1.1,1.06,1.23,1.37,1.29,–,–,–,–,–,0.594,0.562,0.601,0.498,0.378
BEN,0.54,0.561,0.513,0.458,0.584,0.749,0.673,0.832,0.735,0.677,0.0641,0.0847,0.0621,0.0718,0.0865,0.28,0.323,0.379,0.358,0.356
CAL-12T,0.621,0.787,0.713,0.945,0.754,0.919,0.651,0.761,0.643,0.756,1.41,1.21,1.39,1.19,1.23,0.313,0.312,0.191,0.196,0.103
COR-L23,0.449,0.489,0.386,0.537,0.424,1.09,0.985,1.01,1.02,0.988,1.11,0.975,1.07,0.983,0.926,0.503,0.473,0.383,0.32,0.251
COR-L 105,0.671,0.881,0.763,1,0.764,0.384,0.374,0.359,0.325,0.304,0.866,1.07,0.925,0.644,0.782,0.311,0.319,0.258,0.159,0.158
Calu-6,–,–,–,–,–,1.15,0.958,1.05,1.01,1.05,0.794,0.839,0.833,0.753,0.536,–,–,–,–,–
ChaGo-K-1,0.778,0.769,0.689,0.596,0.64,–,–,–,–,–,1.07,1,0.836,1.06,1.17,0.64,0.644,0.515,0.42,0.497
EBC-1,–,–,–,–,–,0.191,0.223,0.199,0.217,0.25,0.417,0.392,0.387,0.333,0.309,–,–,–,–,–
EKVX,0.819,0.749,0.76,0.771,0.725,0.198,0.201,0.204,0.225,0.217,1.05,0.608,1.05,0.851,1.23,0.598,0.606,0.756,–,0.382
EMC-BAC-2,0.49,0.867,0.78,0.256,0.433,0.905,0.92,0.88,0.95,0.992,1.38,1.11,1.16,1.09,1.32,0.318,0.256,0.196,0.224,0.0752
EPLC-272H,0.494,0.529,0.266,0.528,0.41,1.01,1.01,0.915,0.881,1.04,1.25,1.4,1.16,1.21,1.18,0.34,0.303,0.238,0.234,0.139
H3255,0.864,0.884,0.818,–,0.84,0.213,0.277,0.184,0.2,0.23,0.543,0.523,0.446,0.566,0.603,0.526,0.332,0.381,–,0.319
HARA,0.532,0.496,0.547,0.506,0.486,0.764,0.659,0.57,0.793,0.74,1.18,1.09,1.12,1.01,1.2,0.298,0.385,0.256,0.184,0.137
HCC-15,0.859,0.901,0.834,0.971,0.807,1.08,0.77,0.806,0.868,0.958,0.693,0.65,0.642,0.725,0.748,0.66,0.662,0.688,0.426,0.337
HCC-44,1.17,1.18,1.14,1.14,1.2,0.995,1.02,1.05,0.883,1.03,1.11,0.969,0.977,1,0.942,–,–,–,–,–
